According to a melting point compilation (Tetko et al.; mined from patent text by program, amines drawn as free bases though some values may be those of a salt):
Residues, ends and D or L forms follow the SMILES beside them. *: point of attachment. Cbz = O=C(OCc1ccccc1)*

Compound | melting point [°C]
N#Cc1cnc2cc(O)c(O)cc2c1Nc1ccc(Cl)cc1F | 270 to 272
Cc1cccc(OCCOS(N)(=O)=O)c1 | 76 to 78
NS(=O)(=O)c1cc(Cl)c(Cl)c(Cl)c1 | 190 to 191
CSCC(C)(CN)C(=O)N(C)c1nnc(-c2cncc(F)c2)s1 (configuration not stated) | 154 to 157
CCCCCCc1c(F)cc(C2C=CC(CCCCC)=CC2)cc1F (configuration not stated) | 35
Fc1ccc(Nc2ncnc(NN=Cc3ccc(OC(F)(F)F)cc3)n2)cc1C(F)(F)F | 185 to 186
C#Cc1cccc(NC(=O)CCCC(=O)O)c1 | 150 to 154
CCCC(=O)c1cnc2ccsc2c1Nc1ccc(F)cc1C | 153 to 155
CSc1ccc(C(=O)c2c(C)c(C(=O)O)c3n2CCC3C(=O)O)n1C (configuration not stated) | 212 to 213
COc1ccc(C2(Cn3ccnc3)CC(CNc3ccccc3C)ON2C)cc1 (configuration not stated) | 110 to 111
Cn1c(=O)cc(-c2cccc(Cl)c2)c2cc(Br)ccc21 | 182
O=CC(=Cc1cccc(OCc2ccccc2)c1)C(C=O)=Cc1cccc(OCc2ccccc2)c1 | 126 to 127
N#CCCCOc1ccc(CNc2ccc(-n3nc(-c4cccnc4)cc3C#N)cc2)cc1 | 128 to 129
Cc1cccc(-c2cc(O)c(SCc3ccccc3)c(=O)o2)c1 | 137 to 138
CCOCC(=O)N(c1c(C)c(C)cc2ccccc12)C(C)C(=O)OC (configuration not stated) | 96 to 108
CC(C#N)(c1ccc(Cl)cc1)c1ccc(N)cc1Cl (configuration not stated) | 135
Cc1cc(C(=O)Nc2ccc(S(=O)(=O)C(F)(F)F)cc2Cl)c(O)c(C23CC4CC(CC(C4)C2)C3)c1 | 203 to 204
O=Cc1csc2cc([N+](=O)[O-])ccc12 | 187 to 192
COc1ccc(NN=C(Sc2ccc(F)cc2)C(C)=O)cc1 | 135 to 137
COc1ccc(Oc2cc(Oc3ccc(OC)cc3)c(S(N)(=O)=O)cc2C(=O)O)cc1 | 246 to 248
c1cc2ncn(CCCCc3nnnn3C3CCCCC3)c2cn1 | 133 to 135
O=S(=O)(CC(F)(F)F)NC(c1ccc(Cl)c2nc3n(c12)CCCN3c1c(Cl)cc(Cl)cc1Cl)C(F)(F)F (configuration not stated) | 237 to 239
N=C(Nc1ccc(F)cc1)Nc1ncccc1OCc1c(F)cccc1Cl | 152 to 154
CN(C)C(=O)COc1cccc(C(F)(F)F)c1 | 88.5 to 89.5
Clc1ccc(-c2onc3c(CBr)cc(Cl)cc23)cc1 | 145 to 147

Compound | melting point [°C]
COC(=O)Cc1cn(C2CCCCC2)nc1O | 135 to 136
CN(CCCCNC(=O)c1cc2ccccc2s1)C1CCc2ncsc2C1 (configuration not stated) | 105
CC(CCNC(=O)c1ccc(OC(F)(F)F)cc1)CC(C)(C)CNC(=O)c1ccc(OC(F)(F)F)cc1 (configuration not stated) | 97 to 99
O=C(O)CCCC/C=C(/c1cccnc1)c1cccs1 | 84 to 85
Cc1ccc2c(c1)oc1c(C(N)=O)nn(-c3ccc(Cl)cc3Cl)c12 | 185 to 186
CCN(c1ccc(C(=O)c2ccccc2)cc1N)C1CCCCC1 | 106 to 108
O=C(Nc1ccccn1)C(CC1CCCC1)c1ccc(-c2cccnc2)cc1 (configuration not stated) | 139 to 140
O=C(NC(Cc1ccccc1)C(=O)O)c1ccc2cc(OCc3ccccc3)ccc2c1 (configuration not stated) | 207
O=C1Cc2c(cccc2C(=O)O)Sc2ccccc21 | 230 to 232
O=C1c2ccccc2C(=O)N1CC#CCSc1nccc(NC(=S)NCC(F)(F)F)n1 | 124 to 127
CC(c1cc2ccccc2s1)N(OCc1ccccc1)C(N)=O (configuration not stated) | 126
COc1cc(C)c(C(=O)c2c(O)ccc(Br)c2C)c(OC)c1OC | 119 to 120
COc1ccc2c(c1)COc1c-2cc(-c2cccs2)c2cc(OC)ccc12 | 110 to 112
CC(=O)N(C)c1cccc(-c2ccc3nnc(N)n3n2)c1 | 196 to 197
Cn1ccnc1Sc1ccc(Nc2c(C#N)cnc3cc(/C=C/CCN4CCCCC4)ccc23)cc1Cl | 205 to 210
Nc1ccc(Cl)cc1C(O)c1ccccc1F (configuration not stated) | 94 to 98
O=C1N[C@H](Cc2ccc(F)cc2)[C@H](c2ccc(C(F)(F)F)cc2)O1 (racemic) | 160 to 161
CCCCOc1ccc(-c2ncc(C(=O)OCC)cn2)cc1 | 99.1
C=C(Oc1cc(-n2c(=O)cc(C(F)(F)F)[nH]c2=O)c(F)cc1Cl)C(=O)OC | 171 to 173
Cc1nc(-c2ccc3c(c2)c2cc(-c4ccc(Cl)cc4Cl)c(=O)n(C)c2n3C)co1 | 222 to 223
CS(=O)(=O)ON=C(C#N)C(N)=O | 136 to 142
CCOC(=O)c1c2n(c3c(Br)c(N4CCN(C)CC4)c(F)cc3c1=O)C(C)S2 (configuration not stated) | 189 to 190
Cc1cccc(NS(=O)(=O)c2ccc(N3CCNC3=O)cc2)c1C | 231 to 232
CS(=O)(=O)NNC(=O)c1nc(CS(=O)(=O)c2ccc(Cl)cc2)no1 | 198 to 202
CC1(C)CC(C)(C)CC(O)(C#Cc2ccccn2)C1 | 126 to 127

Compound | melting point [°C]
COc1cc(NC(=S)NC(=O)/C=C/c2ccco2)ccc1-c1cc2ccccc2oc1=O | 227 to 230
COC(=O)C(Cc1c[nH]c2ccccc12)NC(=O)C(CCC(N)=O)NC(=O)OCc1ccccc1 (stereo not drawn) (Cbz-Gln-Trp-OMe; configuration not given here) | 197 to 198
O=S(=O)(Cl)c1ccc(-c2cccs2)s1 | 63 to 64
CC(C)CCN1C(=O)C(NC(=O)Oc2cccc(N(C)C)c2)C(=O)N(CC23CC4CC(CC(C4)C2)C3)c2ccccc21 (configuration not stated) | 172 to 173
COc1cc(Nc2nccc(-c3ccccn3)n2)cc(OC)c1OC | 185
O=C(Nc1ccc(C(=O)N2Cc3ccccc3Sc3ccccc32)cc1)c1ccc(Cl)cc1Cl | 112 to 115
N#CC(Cn1ccnc1)(c1ccccc1)c1ccccn1 (configuration not stated) | 83 to 85
O=C(O)CCCCCCCCCCCCCCC(=O)ON1C(=O)c2ccccc2C1=O | 109 to 110
CC(C)(C)c1cc(OCc2n[nH]c(=S)o2)cc(C(C)(C)C)c1O | 195 to 196
CCn1c2ccc(C(=O)CC(C)=O)cc2c2cc(C(=O)c3ccccc3C)ccc21 | 148
COc1cccc(OC)c1C(=O)P(=S)(C(=O)c1c(OC)cccc1OC)c1ccccc1 | 155
CC(C)Oc1ccc(NC(=O)C2(Cl)CC2)cc1C(F)(F)F | 106 to 108
NC(=O)[C@@H](CCC(F)(F)F)N(Cc1ccc(-c2ncon2)cc1F)S(=O)(=O)c1ccc(Cl)cc1 | 66 to 68
CCCCc1nnc2c(NC3CCCC3)nc3ccccc3n12 | 195 to 197
CC1OC(=O)N(c2nc(-c3ccc(C#N)cc3)cs2)C1(C)C (configuration not stated) | 166 to 167
CCCCNC(=O)[C@@H](C[C@H](O)[C@H](CC1CCCCC1)NC(=O)[C@H](Cc1cscn1)NC(=O)[C@@H](CC(=O)N1CCOCC1)Cc1ccccc1)C(C)(C)O | 92 to 95
O=P1(Oc2c(Cl)cc(Cl)cc2Cl)OCC2(CO1)COP(=O)(Oc1c(Cl)cc(Cl)cc1Cl)OC2 (configuration not stated) | 283
COC(=O)COc1cc(N(C(=O)CCl)C(=O)C2=C(C(=O)OC)CCCC2)c(F)cc1Cl | 144 to 145
Cc1c(NC(=O)C(CS)Cc2ccccc2)cccc1C(=O)O (configuration not stated) | 179 to 181
Nc1ccc2oc(=O)c(N)cc2c1 | 183 to 186
CCOc1ccc(S(=O)(=O)N(Cc2ccc(C#N)cc2)[C@@H](CC)c2ccccc2)cc1 | 97 to 98
CC(C)c1nc(-c2ccccn2)ncc1-c1ccc(Cl)cc1 | 145
O=C(O)c1ccc(C=CC(=O)N2CCc3c([nH]c4ccccc34)C2c2ccc3c(c2)CCO3)nc1 (configuration not stated) | 183
CCC(=O)NCC1CCN(CCOc2ccccc2)CC1 | 85 to 86
CNC(=O)C(Cc1c[nH]c2ccccc12)NC(=O)Nc1n[nH]c(=S)s1 (configuration not stated) | 205 to 210

Compound | melting point [°C]
CC(C)(Cn1c(CO)nc2c(N)nc3ccccc3c21)NC(=O)C1CCCCC1 | 248 to 250
COc1ccc(C2=NN(CC(=O)c3ccccc3)C(=O)[C@H]3CCCC[C@@H]23)cc1OC (relative stereo) | 133 to 135
O=C(Nc1cc(Cl)cc(Cl)c1)Nc1ccc(Br)cc1-c1nnn[nH]1 | 263 to 264
O=C(NS(=O)(=O)c1ccccc1C(=O)OC1COC1)Oc1ccccc1 | 91 to 92
CN(C)CCCn1c(=O)c2c(N)c3c(=O)c4ccccc4c(=O)c3c(N)c2c1=O | 215 to 216
CC(C)N(CCCCOCC(=O)O)c1nnc(-c2ccccc2)c(-c2ccccc2)n1 | 128 to 130
N#CSCOc1c(Cl)cc(Cl)c(Cl)c1Cl | 51 to 53
O=C(c1ccccc1)C1CCCc2cccnc21 (configuration not stated) | 205 to 207
CCOC(=O)CCCOc1ccc(NC(=O)c2ccc(C(C)(C)C)cc2)cc1 | 100 to 101
Nc1nc(NCc2cccc(I)c2)c2ncn(C3OC(CO)C(O)C3O)c2n1 (configuration not stated) | 152 to 154
COc1ccc(-c2nc(Sc3cccc(F)c3)[nH]c2-c2ccc(OC)cc2)cc1 | 147 to 149
COc1cc2cnc(Cl)nc2cc1OC | 237 to 238
Brc1cccc2nonc12 | 92 to 94
CCCCNC(=O)ON1C(C)(C)CC(OC(=O)c2ccccc2)CC1(C)C | 126 to 127
CC(OC(=O)C(F)(F)F)C1CCC2C3CC=C4CC(NC(=O)C(F)(F)F)CCC4(C)C3CCC12C (configuration not stated) | 140
O=c1ccc(S(=O)(=O)c2oc3ccccc3c2-c2ccccc2)n[nH]1 | > 220
CCCCCCCCCCCC(=O)NCCCSc1ccncc1 | 71 to 72
OCCNc1ccc2nnn(Cc3ccc4ncccc4c3)c2n1 | 184 to 186
CCCCOC(=O)Nc1nc2ccccc2c2c1nc(CC)n2CCCCNS(C)(=O)=O | 164 to 166
COc1ccc(CNC(=O)c2cc3c(=O)n(CCOc4ccc(F)cc4)c(=O)n(C)c3s2)cc1 | 170 to 171
CCNc1nc(N)nc(-c2ccccc2)c1-c1ccc(=O)n(C(C)C)n1 | 208 to 209
CC(=O)NC1C(Cl)OC(COC(C)=O)C(OC(C)=O)C1OC(C)=O (configuration not stated) | 143
